ChEMBL document CHEMBL5303711, “ECBD screening data for assay EOS300108” (2023)
Calls of active or inactive are those of the source. No rule for the calls is given here.

assay: Cytotoxicity activity against human HepG2 cells assessed by CellTiter-Glo luminescent cell viability assay.; format: toxicity, cell-based; set-up: assay stage confirmatory assay, source tissue liver; settings: HepG2 cells, read-out: IC50 relative

Question: Which CC50 does the source give for `CCC(C)C1OC2(CCC1C)CC1CC(C/C=C(/C)C(OC3CC(OC)C(OC4CC(OC)C(O)C(C)O4)C(C)O3)C(C)/C=C\C=C3\COC4C(O)C(C)=CC(C(=O)O1)C34O)O2` (stereo unspecified) here?
Answer: 11.1 µM (active)

Question: Which CC50 does the source give for `[H]/N=C(\N/C(=N/[H])NCCCCCCNC(=N)NC(=N)Nc1ccc(Cl)cc1)Nc1ccc(Cl)cc1` [CHLORHEXIDINE] here?
Answer: 4.6 µM (active)

Question: Which CC50 does the source give for `NC(=O)c1cnc(NCCc2ccc(O)c(Cl)c2)nc1NCc1ccccc1` here?
Answer: 4.2 µM (active)

Question: Which CC50 does the source give for `Brc1c(Br)c(Br)c2[nH]cnc2c1Br` here?
Answer: 7.4 µM (active)

Question: For `CC[C@H]1CC[C@@H](C)N(C(=O)c2nc(C3CC3)n3ccccc23)C1`, which CC50 is on record?
Answer: 7.5 µM (active)

Question: With `CS(=O)(=O)c1ncc(Cl)c(C(=O)Nc2ccc(Cl)cc2)n1` as the molecule, how does the CC50 read?
Answer: 4.1 µM (active)

Question: With `CN(c1ccc(NC(=O)Nc2ccc(OC(F)(F)F)cc2)cc1)c1ccnc(Nc2cccc(S(N)(=O)=O)c2)n1` [GW806742X] as the molecule, how does the CC50 read?
Answer: 0.9 µM (active)

Question: Which CC50 does the source give for `CCN(Cc1nc2cc(OC)c(OC)cc2c(=O)[nH]1)C(=O)c1ccc2c(c1)OCO2` here?
Answer: 12.7 µM (active)

Question: With `N#Cc1cnn(C(=O)c2ccc(OCc3ccccc3)cc2)c1N` as the molecule, how does the CC50 read?
Answer: 6.1 µM (inactive)

Question: Which CC50 does the source give for `C[C@@H]1CCCN1CCc1cc2cc(-c3ccc(C#N)cc3)ccc2o1` here?
Answer: 6.1 µM (active)

Question: For `O=C(NCc1cccc(O)c1)Nc1nc(-c2ccncc2)cs1`, which CC50 is on record?
Answer: 10.7 µM (inactive)

Question: With `COc1cc2c3c(n(CCCNCCO)c(=O)c2cc1OC)-c1cc2c(cc1C3=O)OCO2` as the molecule, how does the CC50 read?
Answer: 1.1 µM (active)

Question: Which CC50 does the source give for `Cc1cc(C(=O)Nc2cc(Cl)ccc2N2CCN(C)CC2)no1` here?
Answer: 11.9 µM (active)

Question: With `COc1ccc(OC)c(-c2cc(C(=O)Nc3ccccn3)no2)c1` as the molecule, how does the CC50 read?
Answer: 0.8 µM (inactive)

Question: Which CC50 does the source give for `CN1CCN(CCCCOc2ccc(-c3ccccc3)cc2)CC1` here?
Answer: 4 µM (active)

Question: With `COc1cccc(C(=O)Nc2ncc(Cc3cccc(C(F)(F)F)c3)s2)c1` as the molecule, how does the CC50 read?
Answer: 8 µM (active)

Question: Which CC50 does the source give for `O=C(NCc1ccc(-n2ccnc2)nc1)[C@@H]1CC(c2ccccc2)=NO1` here?
Answer: 6.3 µM (active)

Question: For `Cc1cc2c(cc1S(=O)(=O)Nc1cccc(F)c1)OCC(=O)N2`, which CC50 is on record?
Answer: 28.3 µM (inactive)

Question: Which CC50 does the source give for `c1ccc(COc2ccc3c(c2)CCNCC3)cc1` here?
Answer: 10.8 µM (active)

Question: For `Cc1nc2ccccc2n1CCN1CCN(CCOc2ccccc2)CC1`, which CC50 is on record?
Answer: 7.5 µM (active)

Question: With `CC(C)(C)n1c(NC(=O)c2ccncc2)nc2ccccc21` as the molecule, how does the CC50 read?
Answer: 15.2 µM (active)

Question: Which CC50 does the source give for `O=c1ccc2cc(S(=O)(=O)Nc3cccc4cccnc34)ccc2o1` here?
Answer: 3.5 µM (active)

Question: For `CN(C(=O)Cn1c(S(C)(=O)=O)nc2ccccc21)c1ccccc1`, which CC50 is on record?
Answer: 5.1 µM (inactive)

Question: Which CC50 does the source give for `CC(C)c1c2cc(-c3ccnc(N[C@H]4CC[C@H](NC5CCOCC5)CC4)n3)ccc2nn1C` here?
Answer: 0.1 µM (active)

Question: Which CC50 does the source give for `COCCn1cc(C(=O)Nc2nc3ccccc3[nH]2)c2ccccc21` here?
Answer: 11.7 µM (inactive)

Question: Which CC50 does the source give for `CC(C)(C)c1nccc(NC(=O)c2ccc(F)c(C#N)c2)n1` here?
Answer: 1.2 µM (active)

Question: Which CC50 does the source give for `CC1=NNc2nc3c(c(=O)n(Cc4ccccc4Cl)c(=O)n3C)n2[C@H]1C` here?
Answer: 21.1 µM (inactive)

Question: Which CC50 does the source give for `Cc1cccc(NC(=O)C2CCN(S(=O)(=O)c3cn(C(C)C)cn3)CC2)c1` here?
Answer: 8.8 µM (inactive)

Question: Which CC50 does the source give for `COc1ccc(-c2nc(NCCN3CCN(C)CC3)c3ccccc3n2)cc1` here?
Answer: 7.9 µM (active)

Question: For `C#CCN(Cc1cc2c(=O)[nH]c(C)nc2cc1Br)c1ccc(C(=O)NCc2cccnc2)cc1`, which CC50 is on record?
Answer: 0.1 µM (active)

Question: For `CN(C)CCNC(=O)NC[C@H]1CC[C@@H]2[C@H](O1)c1cc(C(F)(F)F)ccc1N[C@H]2c1ccccc1`, which CC50 is on record?
Answer: 3.5 µM (active)

Question: With `Cc1ccnn1-c1ccc(C(=O)Nc2cc(N(C)C)ccn2)cc1` as the molecule, how does the CC50 read?
Answer: 12.1 µM (active)

Question: For `COc1ccc(CNc2nc(N(CCO)CCO)nc3c2ncn3C(C)C)cc1`, which CC50 is on record?
Answer: 0.8 µM (active)

Question: For `CC(C)(C)c1n[nH]c2c(-c3nc4ccccc4s3)c(N)nn2c1=O`, which CC50 is on record?
Answer: 35.4 µM (inactive)

Question: For `COc1ccc2c(C)nc(Nc3nc(C)c(C)c(=O)[nH]3)nc2c1`, which CC50 is on record?
Answer: 6.7 µM (active)

Question: Which CC50 does the source give for `CN(Cc1cc(=O)n2cccc(O)c2n1)CC1(c2ccccc2)CC1(C)C` (stereo unspecified) here?
Answer: 2.9 µM (active)
